Common to all, as to assay type: functional
What all share (details): Homo sapiens

A short description of test [1]: Percent inhibition of sickling of sickle red blood (SS) cells under 4% oxygen was evaluated at 1 mM concentration.
The nature of test [2]: Percent inhibition of sickling of sickle red blood (SS) cells under 4% oxygen was evaluated at 2 mM concentration.
Test [3] is described as follows: Percent inhibition of sickling of sickle red blood (SS) cells under 4% oxygen was evaluated at 5 mM concentration.

Experimental findings from ChEMBL document CHEMBL1138745, “Structural basis for the potent antisickling effect of a novel class of five-membered heterocyclic aldehydic compounds” (2004) are described below.

`O=Cc1ccc(CO)o1` [AES-103] yielded an inhibition at 1000 µM in test [1] of 13%. For the same compound, testing at 2000 µM in test [2] gave an inhibition of 42%. The compound further gave an inhibition at 5000 µM in test [3] of 90%.
Taken in the same sequence, the figures for `O=Cc1ccco1` [FURFURAL] were 0%, 0% and 30%.
On to `COc1cc(C=O)ccc1O` [VANILLIN], for which the inhibition at 5000 µM in test [3] was 20%.

The term inhibition denotes the share of the control response that was lost under treatment. Lower therefore signals a response near the control.
